The values that follow come from US20230122393A1, “STEROIDAL NITRONE F2 FOR USE IN THE PREVENTION AND/OR TREATMENT OF PERMANENT CEREBRAL ISCHAEMIA” (ISQUAEMIA BIOTECH, S.L., priority 2020, published 2023).

Assay [1] has as its system transient focal cerebral ischemia (tMCAO). Kind of assay: Infarct volume by TTC staining after tMCAO. The class given is in vivo, mice. Particulars: 48 h; for infarct volume (as percentages): VEH 19.15±1.08.
Assay [2] deals with global cerebral ischemia, hippocampal CA1 and cortical regions. Kind of assay: Neuronal death by Fluoro-Jade B staining, therapy window study in global cerebral ischemia. The note with it: 5 d.
Protocol: Animal model of global cerebral ischemia, experimental design and administration of nitrones. Transient forebrain ischemia was induced in adult male Wistar rats (10-12 weeks, Charles River) by the standard four-vessel occlusion model (4V0) previously described. Briefly, both vertebral arteries were irreversibly occluded by electrocoagulation under anaesthesia with a mixture of atropine, ketamine and diazepam (0.25, 62.5, and 5 mg/kg, respectively) administered by intraperitoneal injection. After 24 h, ischemia was induced by carotid occlusion with atraumatic clips for 15 min and then clips were removed from the carotid arteries to allow reperfusion. Body temperature of 37° C. was maintained. Animals were studied at 5 days after reperfusion (R5d). […] Ischemic animals were treated with nitrone F2 diluted in 10% ethanol in saline as vehicle by intravenous injection in the tail when the carotid arteries were unclamped for reperfusion. Vehicle-treated control animals were handled in the same way as treated animals.
After 5 days after reperfusion, R5d animals were killed by transcardiac perfusion performed under deep anaesthesia. Perfusion via left ventricle was started with a washout of 200 mL of 0.9% NaCl, and the brains, following perfusion and fixation with 4% (w/v) paraformaldehyde solution in PBS, were removed and postfixed in the same solution overnight at 4° C. Brains were washed sequentially with 10, 20 and 30% (w/v) saccharose in PBS, embedded in Tissue-Tek O.C.T. (Sakura Finetek) and frozen at −80° C. prior to cryostat sectioning. Brain coronal sections containing the hippocampus were prepared at the level of interaural +5.7±0.2 mm on Real Capillary Gap microscope slides (Dako).
(§1) Neuronal death evaluation. Neuronal death was evaluated by Fluoro-Jade-B staining. Brain cryosections (10 μm thick) from ischemic animals that underwent reperfusion for 5 days were used after fixation to detect neuronal death by Fluoro-Jade-B staining (Ayuso et al. 2015 J. Med. Chem. 58, 6704-6709; 10.1021/acs.jmedchem.5b00755) and visualized by fluorescence microscopy. Labelled (dead) neuronal cells (in green) were counted as in TUNEL assay (see below). Data from different animals of each experimental group were independently analysed by two observers, and treatment information was blindly performed throughout the study.
Analysis of results included neuronal damage and death, and a functional test to which the animals were subjected prior to sacrifice. All the results were obtained 5d after post-ischemic reperfusion in a model of global cerebral ischemia.
For assay [3] the test system is unchanged. The assay is described as follows: Neuronal apoptosis by TUNEL assay, therapy window study in global cerebral ischemia. The note with it: 5 d.
Protocol: Animal model of global cerebral ischemia, experimental design and administration of nitrones. Transient forebrain ischemia was induced in adult male Wistar rats (10-12 weeks, Charles River) by the standard four-vessel occlusion model (4V0) previously described. Briefly, both vertebral arteries were irreversibly occluded by electrocoagulation under anaesthesia with a mixture of atropine, ketamine and diazepam (0.25, 62.5, and 5 mg/kg, respectively) administered by intraperitoneal injection. After 24 h, ischemia was induced by carotid occlusion with atraumatic clips for 15 min and then clips were removed from the carotid arteries to allow reperfusion. Body temperature of 37° C. was maintained. Animals were studied at 5 days after reperfusion (R5d). […] The treatments were performed with allocation concealment, assigning a random order to each vehicle or treated animal by a computer-generated randomization program. […] Vehicle-treated control animals were handled in the same way as treated animals. An independent investigator prepared the treatments for each animal according to the randomization schedule.
(§2) Brain sections. After 5 days after reperfusion, R5d animals were killed by transcardiac perfusion performed under deep anaesthesia. Perfusion via left ventricle was started with a washout of 200 mL of 0.9% NaCl, and the brains, following perfusion and fixation with 4% (w/v) paraformaldehyde solution in PBS, were removed and postfixed in the same solution overnight at 4° C. Brains were washed sequentially with 10, 20 and 30% (w/v) saccharose in PBS, embedded in Tissue-Tek O.C.T. (Sakura Finetek) and frozen at −80° C. prior to cryostat sectioning. Brain coronal sections containing the hippocampus were prepared at the level of interaural +5.7±0.2 mm on Real Capillary Gap microscope slides (Dako).
TUNEL assay. Apoptotic neurons within brain sections were detected using the Terminal deoxynucleotidyl transferase-mediated dUTP Nick-End Labeling (TUNEL) assay (Promega). For this test, 5-μm-thick coronal cryostat brain sections containing the dorsal hippocampal formation were obtained as described above and post-fixed with 4% formaldehyde in PBS for 5 min at room temperature. After washing in PBS for three times, sections were permeabilized with 0.1 M sodium citrate, pH 6.0, for 1 min at 95° C., quickly cooled in ice and washed in PBS for 5 min at room temperature. Then, brain sections were incubated with blocking solution (0.1 M Tris-HCl, pH 7.5, 3% bovine serum albumin and 20% fetal bovine serum), washed in PBS for 5 min, and post-fixed with 4% formaldehyde in PBS for 5 min. […]
The hippocampal CA1 subfield and cerebral and lateral cortex fields from a given section were analysed with fluorescence microscopy (40× objective) to count the number of apoptotic nuclei (green).
Assay [4] deals with global cerebral ischemia. The assay is described as follows: Y-maze spatial recognition or alternation test, long-term after global cerebral ischemia. The note with it: i.v. at onset of reperfusion, before sacrifice at 11 weeks, vs healthy control.
Protocol: (§3) In addition, animal behaviour was evaluated before sacrifice for the neurological evolution evaluation.
(§4) Animals were subjected to two behavioural tests for their neurological evaluation prior to sacrifice in order to assess the exploratory activity and spatial recognition and memory; the Y-maze paradigm was used to assess these functions. For the first test, the animal is positioned in the centre of the maze, allowing free exploration for 8 minutes. Exploratory activity is quantified and represented as an activity index. For the assessment of the spatial recognition and memory, the number of times the animals alternate among the three arms (triad number) is evaluated and quantified as an alternation index. Lower activity and/or alternation indexes are indications of reduced curiosity and spatial memory and consequently higher neurological deficit.
For assay [5], the system named is global cerebral ischemia, hippocampal CA1 region. Kind of assay: Long-term viable neurons (S6-positive cells) in hippocampal CA1 11 weeks after global cerebral ischemia. Particulars: i.v. at onset of reperfusion; 11 weeks (77 days) after reperfusion.
Protocol: Animal model of global cerebral ischemia, experimental design and administration of nitrones. Transient forebrain ischemia was induced in adult male Wistar rats (10-12 weeks, Charles River) by the standard four-vessel occlusion model (4V0) previously described. Briefly, both vertebral arteries were irreversibly occluded by electrocoagulation under anaesthesia with a mixture of atropine, ketamine and diazepam (0.25, 62.5, and 5 mg/kg, respectively) administered by intraperitoneal injection. After 24 h, ischemia was induced by carotid occlusion with atraumatic clips for 15 min and then clips were removed from the carotid arteries to allow reperfusion. Body temperature of 37° C. was maintained. Animals were studied at 5 days after reperfusion (R5d). A power analysis was performed (http://www.biomath.info/power/ttest.htm) to determine the sample size. The level of statistical significance was fixed at 0.05, the power set at 0.8 (80%), and the sample size obtained was <6 subjects per group. The treatments were performed with allocation concealment, assigning a random order to each vehicle or treated animal by a computer-generated randomization program. […]
Because of this, a new experimental strategy had to be used, based on the staining of viable neurons and its quantification in the areas of the brain more vulnerable to the ischemic episodes such as the hippocampal CA1 region. […]
For assay [6], the system named is global cerebral ischemia. Kind of assay: Neurological deficit score (NDS), therapy window study in global cerebral ischemia. The note with it: 5 d.
Protocol: Animal model of global cerebral ischemia, experimental design and administration of nitrones. Transient forebrain ischemia was induced in adult male Wistar rats (10-12 weeks, Charles River) by the standard four-vessel occlusion model (4V0) previously described. Briefly, both vertebral arteries were irreversibly occluded by electrocoagulation under anaesthesia with a mixture of atropine, ketamine and diazepam (0.25, 62.5, and 5 mg/kg, respectively) administered by intraperitoneal injection. After 24 h, ischemia was induced by carotid occlusion with atraumatic clips for 15 min and then clips were removed from the carotid arteries to allow reperfusion. Body temperature of 37° C. was maintained. Animals were studied at 5 days after reperfusion (R5d). […] Vehicle-treated control animals were handled in the same way as treated animals.
Evaluation of neurological deficits. Neurological deficits in rats subjected to global cerebral ischemia were blindly evaluated using a scale previously described (Ayuso et al. 2015 J. Med. Chem. 58, 6704-6709; 10.1021/acs.jmedchem.5b00755). […]
Animals were subjected to a functional test before sacrifice in order to quantify their potential disability. […]
The variables quantified to evaluate de neuroprotection of NXY-059, including neurological deficit score (NDS) and neuronal death and apoptosis in brain sections, were performed as described in Example 3. […]
Assay [7] relates to global cerebral ischemia. Kind of assay: Therapeutic window of the neuroprotective effect in global cerebral ischemia. The class given is in vivo, rat.
For assay [8], the system named is global cerebral ischemia. The assay is described as follows: Y-maze exploration activity test, long-term after global cerebral ischemia. Particulars: i.v. at onset of reperfusion, before sacrifice at 11 weeks, vs healthy control.
Protocol: as §3, §4
A further assay deals with SOD1. The assay is described as follows: SOD1 protein levels by western blot in primary neuronal cultures subjected to OGD and recovery.
Assay [9] relates to permanent focal cerebral ischemia (pMCAO). The assay is described as follows: Somatosensory evoked potentials after permanent MCA occlusion (pMCAO). The note with it: F2 0.1 mg/kg i.p. at 2 and 12 h; 72 hours post-stroke and during total time of study (3 weeks).
Protocol: Evaluation of functional brain territory in stroke mice with pMCAO and treated with F2. (A) Representative somatosensory evoked contralateral potentials recorded before and 72 hours post-stroke in treated (F2) and non-treated (vehicle, control) mice. F2 was administered at 2 and 12 hours after MCA ligation. […] In both groups, the electrical stimulus was twice the current level necessary to obtain a supramaximal motor response, typically 1-2 mA. (B) Amplitude of evoked activity in the somatosensory cortex (forepaw sensory field) in the infarcted (left panel) and non-infarcted (right panel) hemispheres of non-treated (vehicle) and treated (F2) mice over time after stroke. […] Data are presented as the means ±SEM. For every time point analysed, the black asterisks denote significant differences between non-treated (vehicle) and treated (F2) mice (two-way ANOVA followed by Tukey's test; *p<0.05, **p<0.05).
Ipsilateral activity in stroke mice with pMCAO and treated with F2. […] (C) Amplitude of somatosensory evoked activity (forepaw sensory field) in the non-damaged hemisphere of non-treated (vehicle) and treated (F2) mice over time after stroke and F2 or vehicle administration.
Here, the neuroprotective efficacy of this nitrone has been assayed in a model of permanent focal cerebral ischemia in mice. […]
Assay [10] has as its system global cerebral ischemia. The note with it: intraperitoneal at onset of reperfusion; reference [17]; cited from earlier work.
The subject of assay [11] is lipid peroxidation and ROS levels. Particulars: preliminary results, reference [17]; cited from earlier work.
The subject of assay [12] is permanent focal cerebral ischemia (pMCAO). Kind of assay: Infarct area/volume by TTC staining after permanent MCA occlusion (pMCAO). In kind it is in vivo, mice. The note with it: F2 0.1 mg/kg i.p. at 2 and 12 hours after MCA occlusion.
The test system of assay [13] is transient forebrain ischemia (global cerebral ischemia). Kind of assay: Dose-response of neuroprotection (Fluoro-Jade B and TUNEL) in transitory global cerebral ischemia, four-vessel occlusion. The note with it: for half effective concentration: i.v. at onset of reperfusion; for half effective concentration / maximal effect (percentage of neuroprotection): 5 days of reperfusion.
Protocol: Animal model of global cerebral ischemia, experimental design and administration of nitrones. Transient forebrain ischemia was induced in adult male Wistar rats (10-12 weeks, Charles River) by the standard four-vessel occlusion model (4V0) previously described. Briefly, both vertebral arteries were irreversibly occluded by electrocoagulation under anaesthesia with a mixture of atropine, ketamine and diazepam (0.25, 62.5, and 5 mg/kg, respectively) administered by intraperitoneal injection. After 24 h, ischemia was induced by carotid occlusion with atraumatic clips for 15 min and then clips were removed from the carotid arteries to allow reperfusion. Body temperature of 37° C. was maintained. Animals were studied at 5 days after reperfusion (R5d). […] The treatments were performed with allocation concealment, assigning a random order to each vehicle or treated animal by a computer-generated randomization program. Ischemic animals were treated with nitrone F2 diluted in 10% ethanol in saline as vehicle by intravenous injection in the tail when the carotid arteries were unclamped for reperfusion. Vehicle-treated control animals were handled in the same way as treated animals. An independent investigator prepared the treatments for each animal according to the randomization schedule.
as §2, §1
TUNEL assay. Apoptotic neurons within brain sections were detected using the Terminal deoxynucleotidyl transferase-mediated dUTP Nick-End Labeling (TUNEL) assay (Promega). For this test, 5-μm-thick coronal cryostat brain sections containing the dorsal hippocampal formation were obtained as described above and post-fixed with 4% formaldehyde in PBS for 5 min at room temperature. After washing in PBS for three times, sections were permeabilized with 0.1 M sodium citrate, pH 6.0, for 1 min at 95° C., quickly cooled in ice and washed in PBS for 5 min at room temperature. Then, brain sections were incubated with blocking solution (0.1 M Tris-HCl, pH 7.5, 3% bovine serum albumin and 20% fetal bovine serum), washed in PBS for 5 min, and post-fixed with 4% formaldehyde in PBS for 5 min.

Assay [14] relates to transient focal cerebral ischemia (tMCAO). The assay is described as follows: Grip strength test after transient middle cerebral artery occlusion (tMCAO). The note with it: for grip strength: 24 hours after reperfusion, VEH 91.76±2.00.
Protocol: Transient occlusion of a distal branch of the middle cerebral artery (tMCAO) was induced in male C57BL/6 mice (9-12-week-old, Charles River). […] Briefly, mice were anesthetized with 4% isoflurane for induction and 1.5-2% isoflurane for maintenance (in 79% N2/21% 02). After drilling a small hole on the temporal bone, the middle cerebral artery (MCA) was compressed for 60 min with a 30-G needle using a micromanipulator. During the surgery, body temperature was maintained at 37.0±0.5° C. using a homoeothermic blanket and CBF was monitored using laser-Doppler flowmetry to confirm MCA occlusion. Buprenorphine (0.05-0.1 mg/kg) was administered subcutaneously immediately before the procedure. […] Surgical inclusion criteria: a reduction in blood flow to <25% of baseline value during ischemia period, and a recovery of 75% of baseline value in the reperfusion period. […] The treatments were administered intraperitoneally at the onset of reperfusion period by an investigator blinded to the experimental condition.
Motor functional test was performed at 1 day before surgery and 24 h and 48 h after tMCAO to evaluate ischemic outcomes and monitor motor function by a blinded researcher to experimental conditions. […] A total of 6 trials were conducted for each test and the strength value was calculated as the mean of them.
For assay [15], the system named is primary neuronal cultures subjected to oxygen and glucose deprivation. The note with it: reference [17]; cited from earlier work.
[16] abbreviates: F2 0.05 mg/kg i.v. 48 h after reperfusion.

Entries after “also recorded” stand apart in the source; their conditions may differ.

Protocol for SOD1: Primary Neuronal Cultures. […] Cell suspensions from cerebral cortex were prepared from 16- to 17-day-old Sprague-Dawley rat embryos. Living cells in cell suspension were counted by trypan blue exclusion method. Cells were seeded on plastic multidishes precoated with 0.05 mg/mL poly-D-lysine at a density of 2.5×10^5 cells/cm2 and were kept at 37° C. in a 6.5% CO2 atmosphere in high glucose Dulbecco's medium supplemented with 15% heat-inactivated (56° C. for 30 min) foetal calf serum. […]
Exposure of Cell Cultures to Oxygen—Glucose Deprivation. […] F2 were analysed independently from 4 to 8 times with different batches of cultures, and each experiment was run in quadruplicate.
35-50 μg of protein cell extracts was resolved in 10 or 12% SDS-PAGE and blotted into a polyvinylidene difluoride (PVDF) membrane (GE Healthcare). […] Then, membranes were incubated with horseradish peroxidase-conjugated secondary antibodies for 1 h, developed with the ECL-Clarity (Bio-Rad) or Prime systems (GE Healthcare) and detected in a ChemiDoc imager (Bio-Rad).
The images were quantified using the quantification software ImageLab and Quantity One (Bio-Rad Laboratories). The protein levels were expressed as intensities in arbitrary units (AU).

As to `CC(C)(C)[N+]([O-])=Cc1ccc(S(=O)(=O)[O-])cc1S(=O)(=O)[O-].[Na+].[Na+]` [NXY-059, reference compound], the “infarct volume (as percentages)” value in [1] (NXY-059 40.0 mg/kg i.p. at onset of reperfusion) was 20.37±0.93%. In addition, the “neuronal death (Fluoro-Jade B)” value in assay [2] (NXY-059 40 mg/kg i.v. 1-48 h after reperfusion) is recorded as “did not induce a decrease in neuronal damage”; in assay [2] (NXY-059 40 mg/kg i.v. at reperfusion onset (0 h), 40 mg/kg), “lower neuroprotective effect; also recorded: only induced a significant decrease of neuronal damage administered at the onset of the reperfusion”. For the same compound, in assay [3] (NXY-059 40 mg/kg i.v. between 0 and 48 h after reperfusion), the “neuronal apoptosis (TUNEL) vs vehicle” value is on record as “did not afford a significant decrease in the neuronal apoptosis”. In the assay with global cerebral ischemia [4], the “alternation index (spatial recognition test, Y-maze)” value is given as “no significant differences when compared to the scores of the control group”. Also, in [5], the “viable neurons (S6-positive cells) in hippocampal CA1” value is “did not recover the damage observed”. For the same compound, the “neurological deficit score (NDS) vs vehicle” value in the assay with global cerebral ischemia [6] (NXY-059 40 mg/kg i.v. 0-48 h after reperfusion) is “did not improve the NDS”. For the same compound, the therapeutic window result in the assay with global cerebral ischemia [7] (NXY-059 40 mg/kg i.v., compared to F2) was “narrow therapeutic window compared to F2”. Also, the “activity index (exploration activity test, Y-maze)” value in the assay with global cerebral ischemia [8] is given as “neurological deficit was similar to the one obtained for VEH”.
As for `CC(C)CCC[C@@H](C)[C@H]1CC[C@H]2[C@@H]3CCC4=C/C(=[N+](\C)[O-])CC[C@]4(C)[C@H]3CC[C@]12C` [F2, (E)-N-((8S,9S,10R,13R,14S,17R)-10,13-dimethyl-17-((R)-6-methylheptan-2-yl)-7,8,9,11,12,13,14,15,16,17-decahydro-1H-cyclopenta[a]phenanthren-3(2H,6H,10H)-ylidene)methanamine oxide], in assay [1] (0.1 mg/kg F2, p<0.05), the “decrease of infarct volume respect to NXY059” value worked out at 20.27%. The “decrease of infarct volume respect to control VEH” value in assay [1] (0.1 mg/kg F2, p<0.05) was determined as 15.20%. The “infarct volume (as percentages)” value in [1] (F2 0.1 mg/kg i.p. at onset of reperfusion) worked out at 16.24±0.85%. Also, the “neuronal death (Fluoro-Jade B) vs vehicle” value is listed as “did not afford a significant decrease in the neuronal damage” in assay [2] (setting [16]); “significantly decreased neuronal death” in assay [2] (F2 0.05 mg/kg i.v. between 0 and 6 h after reperfusion, CA1 and cortex). The “neuronal apoptosis (TUNEL) vs vehicle” value is “significant in both hippocampus and cerebral cortex” in assay [3] (F2 0.05 mg/kg i.v. at 6 h after reperfusion); “did not afford a significant decrease in the apoptosis” in assay [3] (F2 0.05 mg/kg i.v. at 48 h after reperfusion); “significant reduction of apoptosis” in assay [3] (F2 0.05 mg/kg i.v., maximum effect at 0-3 hours after onset of reperfusion). The “alternation index (spatial recognition test, Y-maze)” value in the assay on global cerebral ischemia [4] is on record as “no significant differences when compared to the scores of the control group”. Besides, in the assay with SOD1 (5 μM F2, 2 h after OGD, vs untreated and control groups), the SOD1 levels entry is on record as “significant increase of SOD1 levels”. Besides, the “enhancement of the SOD1 increase caused by OGD alone” value with SOD1 (5 μM F2, 24 h after OGD) stood at 15%. Moreover, the “somatosensory evoked cortical response, damaged hemisphere (right)” value in assay [9] is “preserved cortical response”. The “neuronal death and apoptosis in hippocampus and cortex” value in the assay on global cerebral ischemia [10] is “decreased neuronal death and apoptosis”. The “lipid peroxidation and ROS levels” value in assay [11] is on record as “both decreased”. Also, in [5], the “viable neurons (S6-positive cells) in hippocampal CA1” value was “significantly preserves neuronal viability”. In assay [12], the “infarct volume vs vehicle” value is “significantly reduces infarct volume”. Moreover, in [12] (48 hours), the “infarcted area (TTC staining) vs non-treated” value is on record as “lower infarcted area”. For the same compound, the “neurological deficit score (NDS) vs vehicle” value in the assay on global cerebral ischemia [6] (setting [16]) was “did not improve the NDS”. For the same compound, in the assay on global cerebral ischemia [7] (F2 0.05 mg/kg i.v.), the “administration time of maximum neuroprotective effect after reperfusion onset” value is 0 to 3 h. Also, in the assay on global cerebral ischemia [7] (F2 0.05 mg/kg i.v.), the “therapeutic window of neuroprotective effect, time after onset of reperfusion” value is given as not above 6 h. Moreover, the half effective concentration in assay [13] (cerebral cortex) stood at 0.015 mg/kg; in assay [13] (hippocampal region CA1), 0.025 mg/kg. Moreover, the “maximal effect (percentage of neuroprotection)” value worked out at 81% in assay [13] (cerebral cortex, reached at 0.05 mg/kg i.v. at onset of reperfusion) and 35% in assay [13] (hippocampal region CA1, at 0.05 mg/kg i.v. at onset of reperfusion). In addition, in [13] (doses 0.01-0.1 mg/kg i.v., 5 days after reperfusion), the “most effective dose in decreasing neuronal death and apoptosis” value is on record as 0.05 mg/kg. In addition, the grip strength in assay [14] (0.05 mg/kg F2 i.p. at onset of reperfusion) came to 110.2±5.14 grams; in assay [14] (0.1 mg/kg F2 i.p. at onset of reperfusion), 113.2±5.35 grams. The “grip strength values vs vehicle” value in assay [14] (F2 0.05 or 0.1 mg/kg at onset of reperfusion, 24 h and 48 h after reperfusion) is on record as “improved grip strength values”. Further, the “neuroprotective effect (cell viability) after OGD” value in [15] is “good neuroprotective effect in the micromolar range”. The “activity index (exploration activity test, Y-maze)” value in the assay on global cerebral ischemia [8] is “activity scores that were equivalent to those observed in the control group”.
